The assay addresses HiBit-WIZ fusion protein (Homo sapiens, UniProt O95785+Q96SW2). As to the kind of experiment: Quantification of WIZ protein levels in HiBit tag fusion protein assay (WIZ HiBit assay in 293T cells). The assay is classed as cell-based. Details: Dmax: dose or concentration left out as unconfirmed. The conditions noted are these: for Dmax / remaining activity at up to 25 µM: HEK-293T, 293T cells; for Dmax: 100 minus Amax, read-out: % degradation of WIZ (100-Amax); for remaining activity at up to 25 µM: DMSO-normalized, curve-fitted percentage of WIZ-HiBit remaining at 25 uM, read-out: WIZ Amax; for DC50: WIZ HiBit assay in 293T cells, 10-point, 5-fold dose response, highest concentration 25 μM, about 18 hours, read-out: WIZ AC50. Background: With HiBiT, luminescence reflects the tagged protein that the partner subunit can reach.

Chain of HiBit-WIZ fusion protein (O95785 whole entry, the tested form may be a part): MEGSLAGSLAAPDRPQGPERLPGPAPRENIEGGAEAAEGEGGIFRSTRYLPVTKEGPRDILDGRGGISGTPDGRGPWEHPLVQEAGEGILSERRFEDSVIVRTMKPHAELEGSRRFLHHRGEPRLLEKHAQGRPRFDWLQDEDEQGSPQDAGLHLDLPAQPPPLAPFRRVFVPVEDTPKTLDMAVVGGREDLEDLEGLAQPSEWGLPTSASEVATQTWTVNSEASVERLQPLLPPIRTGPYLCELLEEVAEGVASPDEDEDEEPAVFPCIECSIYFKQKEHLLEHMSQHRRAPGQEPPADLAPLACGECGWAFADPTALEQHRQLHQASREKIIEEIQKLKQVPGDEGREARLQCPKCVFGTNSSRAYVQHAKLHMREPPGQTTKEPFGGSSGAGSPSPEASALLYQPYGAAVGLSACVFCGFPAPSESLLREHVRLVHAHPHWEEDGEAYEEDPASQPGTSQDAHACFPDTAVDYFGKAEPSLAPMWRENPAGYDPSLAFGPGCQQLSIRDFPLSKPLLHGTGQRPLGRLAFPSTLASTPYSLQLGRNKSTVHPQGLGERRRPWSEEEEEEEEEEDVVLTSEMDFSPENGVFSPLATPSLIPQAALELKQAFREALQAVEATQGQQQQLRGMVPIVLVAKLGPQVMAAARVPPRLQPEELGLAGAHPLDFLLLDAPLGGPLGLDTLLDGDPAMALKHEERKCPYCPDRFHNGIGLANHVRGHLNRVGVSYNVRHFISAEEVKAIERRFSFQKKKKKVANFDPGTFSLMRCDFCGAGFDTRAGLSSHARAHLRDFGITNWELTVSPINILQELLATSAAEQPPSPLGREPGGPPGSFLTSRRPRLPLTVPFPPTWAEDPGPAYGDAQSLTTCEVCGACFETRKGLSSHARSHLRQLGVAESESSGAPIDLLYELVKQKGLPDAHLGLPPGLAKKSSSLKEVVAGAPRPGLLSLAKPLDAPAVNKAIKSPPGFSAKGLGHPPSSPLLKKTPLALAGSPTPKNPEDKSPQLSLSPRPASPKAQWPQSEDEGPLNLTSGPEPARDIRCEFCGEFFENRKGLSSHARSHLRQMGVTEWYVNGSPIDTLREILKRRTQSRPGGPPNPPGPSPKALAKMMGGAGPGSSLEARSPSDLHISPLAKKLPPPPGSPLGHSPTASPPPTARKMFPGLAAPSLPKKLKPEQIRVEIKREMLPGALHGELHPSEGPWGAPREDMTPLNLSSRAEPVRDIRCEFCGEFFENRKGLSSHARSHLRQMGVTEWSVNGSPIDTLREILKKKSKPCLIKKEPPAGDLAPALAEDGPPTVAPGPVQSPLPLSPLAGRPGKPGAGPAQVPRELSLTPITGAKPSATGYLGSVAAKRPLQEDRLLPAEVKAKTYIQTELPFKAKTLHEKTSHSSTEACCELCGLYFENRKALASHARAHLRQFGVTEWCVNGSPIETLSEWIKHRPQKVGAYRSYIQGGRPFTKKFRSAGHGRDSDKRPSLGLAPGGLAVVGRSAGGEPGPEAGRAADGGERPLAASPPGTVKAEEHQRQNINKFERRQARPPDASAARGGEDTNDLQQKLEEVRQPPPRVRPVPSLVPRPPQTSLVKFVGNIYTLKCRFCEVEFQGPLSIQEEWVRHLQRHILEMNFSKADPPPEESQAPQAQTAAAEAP
Chain of HiBit-WIZ fusion protein (Q96SW2 whole entry, the tested form may be a part): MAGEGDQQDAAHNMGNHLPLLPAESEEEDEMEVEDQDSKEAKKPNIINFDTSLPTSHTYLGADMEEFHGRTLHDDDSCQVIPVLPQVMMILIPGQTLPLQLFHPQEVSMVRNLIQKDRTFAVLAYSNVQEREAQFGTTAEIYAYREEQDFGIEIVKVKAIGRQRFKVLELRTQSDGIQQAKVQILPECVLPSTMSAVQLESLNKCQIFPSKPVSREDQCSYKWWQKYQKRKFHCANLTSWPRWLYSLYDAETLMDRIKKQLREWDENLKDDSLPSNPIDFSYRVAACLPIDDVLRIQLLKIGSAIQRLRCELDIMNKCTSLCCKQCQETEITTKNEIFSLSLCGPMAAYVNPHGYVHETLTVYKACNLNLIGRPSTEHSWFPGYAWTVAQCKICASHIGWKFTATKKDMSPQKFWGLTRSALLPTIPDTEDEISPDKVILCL
Chain of HiBit-WIZ fusion protein (Q16531 whole entry partner, the tested form may be a part): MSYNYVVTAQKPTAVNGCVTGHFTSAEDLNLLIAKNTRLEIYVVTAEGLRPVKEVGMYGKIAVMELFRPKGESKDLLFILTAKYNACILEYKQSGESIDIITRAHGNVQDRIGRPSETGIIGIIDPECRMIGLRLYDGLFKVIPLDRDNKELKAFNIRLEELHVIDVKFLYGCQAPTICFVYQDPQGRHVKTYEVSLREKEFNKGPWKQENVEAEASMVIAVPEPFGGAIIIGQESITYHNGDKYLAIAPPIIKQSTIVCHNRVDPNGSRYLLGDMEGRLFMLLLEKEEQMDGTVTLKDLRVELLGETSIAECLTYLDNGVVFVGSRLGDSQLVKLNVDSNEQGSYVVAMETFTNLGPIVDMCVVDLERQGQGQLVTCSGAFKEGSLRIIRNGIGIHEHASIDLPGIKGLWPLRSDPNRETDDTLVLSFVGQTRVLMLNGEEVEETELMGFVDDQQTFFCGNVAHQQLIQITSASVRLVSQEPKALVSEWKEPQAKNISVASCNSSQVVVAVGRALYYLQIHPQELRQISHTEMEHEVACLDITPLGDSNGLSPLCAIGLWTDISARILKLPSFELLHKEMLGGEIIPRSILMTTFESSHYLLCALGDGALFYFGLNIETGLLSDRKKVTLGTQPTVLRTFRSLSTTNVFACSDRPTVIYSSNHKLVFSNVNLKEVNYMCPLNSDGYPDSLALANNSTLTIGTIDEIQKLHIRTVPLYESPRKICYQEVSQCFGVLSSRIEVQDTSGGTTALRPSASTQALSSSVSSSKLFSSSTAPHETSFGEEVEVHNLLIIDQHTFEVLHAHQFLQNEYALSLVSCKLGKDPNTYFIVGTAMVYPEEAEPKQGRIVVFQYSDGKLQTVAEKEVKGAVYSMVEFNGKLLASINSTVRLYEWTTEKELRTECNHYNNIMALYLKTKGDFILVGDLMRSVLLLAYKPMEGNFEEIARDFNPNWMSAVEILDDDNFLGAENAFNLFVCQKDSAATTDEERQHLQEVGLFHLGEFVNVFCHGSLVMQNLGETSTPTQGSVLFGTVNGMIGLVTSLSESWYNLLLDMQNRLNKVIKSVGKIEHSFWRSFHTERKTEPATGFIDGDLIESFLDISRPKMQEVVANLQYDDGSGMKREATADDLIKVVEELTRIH

In the case of `Cc1nnsc1CN1CCCC[C@@H]1COc1ccc2c(c1)CN(C1CCC(=O)NC1=O)C2=O` (stereo partly drawn) [Compound I-50ep], the Dmax came out at 12.4%, the remaining activity at up to 25 µM amounted to 87.6% and the DC50 was greater than 25000 nM.
On the same counts, the results for `Cc1cc(CN2CCCC[C@@H]2COc2ccc3c(c2)CN(C2CCC(=O)NC2=O)C3=O)no1` (stereo partly drawn) [Compound I-50eq] are 88.4%, 11.6% and 272 nM.
`CCOC(=O)c1cccc2[nH]nc(CN3CCCC[C@@H]3COc3ccc4c(c3)CN(C3CCC(=O)NC3=O)C4=O)c12` (stereo partly drawn) [Compound I-50er]: the Dmax amounted to 89.8%, the remaining activity at up to 25 µM stood at 10.2% and the DC50 is 920 nM.
In the case of `O=C1CCC(N2Cc3cc(OC[C@H]4CCCCN4Cc4ccc(N5CCCC5)nc4)ccc3C2=O)C(=O)N1` (stereo partly drawn) [Compound I-50es], the Dmax was 99.5%, the remaining activity at up to 25 µM came out at 0.5% and the DC50 is 3 nM.
On the same counts, the results for `O=C1CCC(N2Cc3cc(OC[C@H]4CCCCN4Cc4ncc[nH]4)ccc3C2=O)C(=O)N1` (stereo partly drawn) [Compound I-50et] are 49.1%, 50.9% and greater than 25000 nM.
As to `COc1cc(CN2CCCC[C@@H]2COc2ccc3c(c2)CN(C2CCC(=O)NC2=O)C3=O)ccc1C` (stereo partly drawn) [Compound I-50eu], the Dmax was 99.3%, the remaining activity at up to 25 µM was 0.7% and the DC50 was 3 nM.
Regarding `COc1cc2[nH]nc(CN3CCCC[C@@H]3COc3ccc4c(c3)CN(C3CCC(=O)NC3=O)C4=O)c2cc1OCc1ccccc1` (stereo partly drawn) [Compound I-50ev], the Dmax amounted to 98%, the remaining activity at up to 25 µM was found to be 2% and the DC50 worked out at 51 nM.
Regarding `Cc1nccn1-c1ccc(CN2CCCC[C@@H]2COc2ccc3c(c2)CN(C2CCC(=O)NC2=O)C3=O)cc1` (stereo partly drawn) [Compound I-50ew], the Dmax was found to be 99.3%, the remaining activity at up to 25 µM was determined as 0.7% and the DC50 is 26 nM.
For `O=C1CCC(N2Cc3cc(OC[C@@H]4CCCCN4Cc4cccn4S(=O)(=O)c4ccccc4)ccc3C2=O)C(=O)N1` (stereo partly drawn) [Compound I-50f], the Dmax amounted to 82.6%, the remaining activity at up to 25 µM worked out at 17.4% and the DC50 was 816 nM.
On the same counts, the results for `COC(=O)c1ccc(Oc2ccc(CN3CCCC[C@H]3COc3ccc4c(c3)CN(C3CCC(=O)NC3=O)C4=O)cc2)cc1` (stereo partly drawn) [Compound I-50g] are 88.9%, 11.1% and 97 nM.
On the same counts, the results for `N#Cc1ccccc1CN1CCCC[C@H]1COc1ccc2c(c1)CN(C1CCC(=O)NC1=O)C2=O` (stereo partly drawn) [Compound I-50h] are 59.4%, 40.6% and 13600 nM.
Take `Cc1nnc(-c2ccc(CN3CCCC[C@H]3COc3ccc4c(c3)CN(C3CCC(=O)NC3=O)C4=O)cc2)o1` (stereo partly drawn) [Compound I-50i]: the Dmax was 28.8%, the remaining activity at up to 25 µM turned out to be 71.2% and the DC50 is greater than 25000 nM.
With `O=C1CCC(N2Cc3cc(OC[C@@H]4CCCCN4Cc4ccc(C(=O)N5CCCC5)cc4)ccc3C2=O)C(=O)N1` (stereo partly drawn) [Compound I-50j], the Dmax worked out at 65.4%, the remaining activity at up to 25 µM is 34.6% and the DC50 came to 3490 nM.
Take `O=C1CCC(N2Cc3cc(OC[C@@H]4CCCCN4Cc4ccc[nH]c4=O)ccc3C2=O)C(=O)N1` (stereo partly drawn) [Compound I-50k]: the Dmax stood at 34.7%, the remaining activity at up to 25 µM amounted to 65.3% and the DC50 was greater than 25000 nM.
For the compound `CN(C)c1ncc(CN2CCCC[C@H]2COc2ccc3c(c2)CN(C2CCC(=O)NC2=O)C3=O)cn1` (stereo partly drawn) [Compound I-50m], the Dmax turned out to be 46.6%, the remaining activity at up to 25 µM was 53.4% and the DC50 is greater than 25000 nM.
As for `O=C1CCC(N2Cc3cc(OC[C@@H]4CCCCN4Cc4c(F)cccc4Cl)ccc3C2=O)C(=O)N1` (stereo partly drawn) [Compound I-50n], the Dmax is 98.3%, the remaining activity at up to 25 µM is 1.7% and the DC50 came to 22 nM.
